In patent US12390505B2, “Composition for preventing or treating obesity or diabetes, comprising acanthopanax senticosus extract and garcinia cambogia extract or compound isolated therefrom” (KOREA RESEARCH INSTITUTE OF BIOSCIENCE AND BIOTECHNOLOGY, priority 2020, dated 2025):

Legend:
Format in all cases: in vivo, mouse
[1] = Example 11 HFD mice: serum test; conditions: oral once daily 10 weeks, 50 mg/kg
Description: (§1) After adapting 8-week-old male C57b1/6 J mice to the basic diet (AIN-76A diet) for 2 weeks, and consuming Diet Induced Obesity Diet Formulas (D12451) 60 kcal % HFD diet for 2 weeks from 10 weeks of age, and then the test drug was administered when the average body weight reached 28 g or more. The animal breeding room environment of the mouse was maintained in a constant temperature (25±2° C.), constant humidity (50±5%) and a 12-hour photoperiod (light on 07:00˜19:00) in which the light and shade were controlled in an SPF environment. […] The test drug was dispersed in 0.5% Carboxymethyl cellulose (CMC) and administered in a volume of 0.2 ml, and the drug was administered orally by force into the stomach using a metal Zonde for oral administration.
Blood was collected by cardiac puncture to conduct a blood biochemical test after the end of the final experiment, and then plasma was separated by centrifugation at 3,000 rpm and 4° C. for 15 minutes within 30 minutes after blood collection, and then stored at −74° C. for blood chemistry and ELISA analysis. The contents of total cholesterol, high-density lipoprotein (HDL), low-density lipoprotein (LDL), triglyceride, FFA, glucose, and LDH, which are indicators of lipid content, were measured using an automated biochemical analyzer (Hitachi-720, Hitachi Medical, Japan). IGF-1 and Creatine were diluted in coating buffer, coated on microwells, and left overnight at 4° C. After washing each well with the buffer solution three times, 100 μl of serum (10-fold dilution) was dispensed, left at room temperature for 1 hour, and then washed twice with the buffer solution. Thereafter, 100 μl of the antibody avidin-HRP conjugate was treated, left at room temperature for 1 hour, and then washed again. 100 μl of the TMB substrate was dispensed, left in the dark for 30 minutes, treated with 50 μl of the stop solution, and absorbance was measured at a wavelength of 450 nm using an ELISA reader.
(§2) Results obtained from various experiments are recorded as mean±standard error of mean (SEM), and significance verification is determined using the student's T-test analysis method. The data were analyzed using one-way ANOVA to determine a statistically significant variance between each group for each final point measured, and statistical significance between each group was determined using the nonparametric Mann-Whitney test and Dunnett's multiple comparison test (IBM SPSS statistics version 19.0 statistic software, Inc, IBM, USA).

[2] = Example 12 HFD mice: serum test; conditions: serum of HFD mice, oral once daily for 10 weeks; chiisanogenin 50 mg/kg; Garcinia cambogia extract 200 mg/kg; combination 50 + 150 mg/kg; Met 50 mg/kg
Description: The test drug was dispersed in 0.5% Carboxymethyl cellulose (CMC) and administered in a volume of 0.2 ml, and the drug was administered orally by force into the stomach using a metal Zonde for oral administration. Blood was collected by cardiac puncture to conduct a blood biochemical test after the end of the final experiment, and then plasma was separated by centrifugation at 3,000 rpm and 4° C. for 15 minutes within 30 minutes after blood collection, and then stored at −74° C. for blood chemistry and ELISA analysis. The contents of total cholesterol, high-density lipoprotein (HDL), low-density lipoprotein (LDL), triglyceride, FFA, glucose, and LDH, which are indicators of lipid content, were measured using an automated biochemical analyzer (Hitachi-720, Hitachi Medical, Japan). IGF-1 and Creatine were diluted in coating buffer, coated on microwells, and left overnight at 4° C. […] 100 μl of the TMB substrate was dispensed, left in the dark for 30 minutes, treated with 50 μl of the stop solution, and absorbance was measured at a wavelength of 450 nm using an ELISA reader. Results obtained from various experiments are recorded as mean±standard error of mean (SEM), and significance verification is determined using the student's T-test analysis method. […]

[3] = Example 11 HFD mice: weight change, dietary efficiency and organ weight; conditions: oral once daily 10 weeks, 50 mg/kg
Description: as §1
Body weight and food intake were measured and recorded at regular times every week. Total weight gain: weight at the end of the experiment−weight at the start of the experiment (1) Food intake=[…] (2) Food efficiency ratio (FER)=[total weight gain/total food intake]×100 (3)
The data were analyzed using one-way ANOVA to determine a statistically significant variance between each group for each final point measured, and statistical significance between each group was determined using the nonparametric Mann-Whitney test and Dunnett's multiple comparison test (IBM SPSS statistics version 19.0 statistic software, Inc, IBM, USA).

[4] = Example 12 HFD mice: oral glucose tolerance test; conditions: oral once daily 10 weeks, 50 mg/kg
Description: as §1
[…] Blood to be used for blood glucose measurement was collected from the tail vein of a mouse, and blood glucose was measured using a serum analyzer (Accutrend plus GCTL Cobas Roche, Germany).
as §2

Compound `CN(C)C(=N)N=C(N)N` [Met, Metformin] has a Cholesterol [1] of 175.6 ± 9.03 mg/dL, a Creatin [1] of 0.564 ± 0.011 mg/dL and a Glucose [1] of 202.5 ± 7.98 mg/dL. The HDL [1] was 88.1 ± 2.99 mg/dL, the IGF-1 [1] was 1455.8 ± 138.07 pg/mL and the “Inhibition Rate (Cholesterol)” value [1] was 40%. The “Inhibition Rate (Creatin)” value [1] was 175%, the “Inhibition Rate (Glucose)” value [1] was 11% and the “Inhibition Rate (HDL)” value [1] was 7%. For the same compound, the “Inhibition Rate (IGF-1)” value [1] was 89%, the “Inhibition Rate (LDH)” value [1] was 122% and the “Inhibition Rate (LDL)” value [1] was 71%. For the same compound, the “Inhibition Rate (NEFA)” value [1] was 61%, the “Inhibition Rate (Triglyceride)” value [1] was 65% and the LDH [1] was 592.0 ± 53.77 U/L. For the same compound, the LDL [1] was 12.3 ± 0.80 mg/dL, the NEFA [1] was 2.26 ± 0.10 mEq/L and the Triglyceride [1] was 118.6 ± 5.90 mg/dL. The “Creatin (mg/dL), mean ± standard error” value [2] was 0.564 ± 0.011 mg/dL, the Final weight [3] was 38.6 ± 0.93 g and the “Food intakes” value [3] was 2.24 g/day. For the same compound, the “Inhibition Rate (FER)” value [3] was 41%, the “Inhibition Rate (final weight)” value [3] was 43% and the “Inhibition Rate (weight gain)” value [3] was 51%. It also gave a Kidney weight [3] of 0.31 ± 0.01 g, a Spleen weight [3] of 0.10 ± 0.00 g and a Weight gain [3] of 15.3 ± 0.82 g. For the same compound, the “Inhibition Rate (OGTT)” value [4] was 23% and the “OGTT (30 min-0 min, mg/dL)” value ([4]; glucose 1 g/kg) was 148.0 ± 18.50^ mg/dL.
